A word on the bioavailability: it is dose-corrected exposure relative to a reference, in per cent. Read a low bioavailability as little systemic uptake. The IC50 is the concentration at which inhibition is half-maximal. For orientation: inhibition in vivo means how much of the control response was suppressed.

Here are results for 45 compounds from ChEMBL document CHEMBL1135152, “Design, synthesis, and SAR of monobenzamidines and aminoisoquinolines as factor Xa inhibitors” (Bioorg Med Chem Lett, 2002).

The nature of series [1]: Bioavailability in rat. It counts as ADME, organism-based. Particulars: in vivo.
For series [2], the target named is T1, Coagulation factor X (Homo sapiens, UniProt P00742). Put plainly: Tested in vitro for the inhibitory activity against Coagulation factor Xa.
T1 sequence (P00742 41-179 limits assumed): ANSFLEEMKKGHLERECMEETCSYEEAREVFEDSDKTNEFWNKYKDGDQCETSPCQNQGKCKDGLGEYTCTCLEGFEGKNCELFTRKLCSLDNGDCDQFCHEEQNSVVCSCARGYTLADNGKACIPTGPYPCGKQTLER
T1 sequence (P00742 235-488 limits assumed): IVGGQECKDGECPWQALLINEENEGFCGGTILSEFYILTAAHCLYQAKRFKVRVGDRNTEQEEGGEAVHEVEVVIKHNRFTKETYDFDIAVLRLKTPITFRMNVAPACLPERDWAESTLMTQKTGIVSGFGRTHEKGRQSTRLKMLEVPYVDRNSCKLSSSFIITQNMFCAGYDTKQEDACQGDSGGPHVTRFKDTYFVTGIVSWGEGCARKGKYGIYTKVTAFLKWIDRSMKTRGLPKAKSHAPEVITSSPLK
Series [3] relates to Oryctolagus cuniculus. Put plainly: Tested for inhibition of thrombosis in rabbit deep vein model after intravenous administration at dosage of 2 mg/kg. It counts as functional.
The target in series [4] is Plasminogen (Homo sapiens, UniProt P00747). Put plainly: Tested in vitro for the inhibitory activity against plasmin.
Chain of Plasminogen (P00747 97-580 limits assumed): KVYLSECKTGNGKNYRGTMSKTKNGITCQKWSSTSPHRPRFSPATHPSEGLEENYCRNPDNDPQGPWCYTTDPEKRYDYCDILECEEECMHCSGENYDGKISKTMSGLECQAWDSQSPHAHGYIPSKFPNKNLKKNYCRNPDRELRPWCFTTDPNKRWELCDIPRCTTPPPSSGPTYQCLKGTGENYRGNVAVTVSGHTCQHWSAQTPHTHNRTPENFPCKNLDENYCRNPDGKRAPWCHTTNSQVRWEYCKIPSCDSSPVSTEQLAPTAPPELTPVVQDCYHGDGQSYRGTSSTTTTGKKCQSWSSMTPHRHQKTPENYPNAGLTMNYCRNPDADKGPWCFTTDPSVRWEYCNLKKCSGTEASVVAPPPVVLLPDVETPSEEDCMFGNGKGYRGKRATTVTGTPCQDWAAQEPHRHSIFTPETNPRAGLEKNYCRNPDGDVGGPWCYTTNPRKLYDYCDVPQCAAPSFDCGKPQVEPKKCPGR
Chain of Plasminogen (P00747 581-810 limits assumed): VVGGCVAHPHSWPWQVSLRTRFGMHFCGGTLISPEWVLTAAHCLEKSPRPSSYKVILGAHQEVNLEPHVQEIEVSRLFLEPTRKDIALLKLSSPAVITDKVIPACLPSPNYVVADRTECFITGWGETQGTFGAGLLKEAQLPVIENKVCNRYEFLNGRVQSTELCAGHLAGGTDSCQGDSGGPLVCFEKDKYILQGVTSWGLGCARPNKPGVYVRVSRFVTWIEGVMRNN
Series [5] deals with Vitamin K-dependent protein C (Homo sapiens, UniProt P04070). Nature of the series: Tested in vitro for the inhibitory activity against activated protein C (APC).
Chain of Vitamin K-dependent protein C (P04070 43-197 limits assumed): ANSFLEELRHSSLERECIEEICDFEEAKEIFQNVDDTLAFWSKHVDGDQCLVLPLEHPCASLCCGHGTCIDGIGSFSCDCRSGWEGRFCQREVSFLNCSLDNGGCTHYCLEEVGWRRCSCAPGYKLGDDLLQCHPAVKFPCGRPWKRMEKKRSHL
Chain of Vitamin K-dependent protein C (P04070 212-461 limits assumed): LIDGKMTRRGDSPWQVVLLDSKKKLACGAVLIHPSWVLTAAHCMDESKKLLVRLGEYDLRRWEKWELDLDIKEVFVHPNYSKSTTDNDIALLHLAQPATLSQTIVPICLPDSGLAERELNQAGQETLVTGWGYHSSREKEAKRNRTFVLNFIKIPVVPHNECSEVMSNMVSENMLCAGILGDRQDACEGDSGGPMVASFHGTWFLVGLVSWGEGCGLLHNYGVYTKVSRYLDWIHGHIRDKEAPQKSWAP
The target of series [6] is Kallikrein-1 (Homo sapiens, UniProt P06870). Put plainly: Tested in vitro for the inhibitory activity against kallikrein.
Chain of Kallikrein-1 (P06870 whole entry): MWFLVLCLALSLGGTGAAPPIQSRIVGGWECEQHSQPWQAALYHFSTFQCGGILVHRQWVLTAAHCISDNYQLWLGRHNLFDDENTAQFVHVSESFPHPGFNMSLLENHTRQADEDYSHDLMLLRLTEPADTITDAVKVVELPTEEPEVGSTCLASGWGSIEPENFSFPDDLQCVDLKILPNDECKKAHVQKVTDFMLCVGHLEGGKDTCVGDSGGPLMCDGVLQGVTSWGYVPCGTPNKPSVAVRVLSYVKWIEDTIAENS
Series [7] deals with Serine protease 1 (Homo sapiens, UniProt P07477). Nature of the series: Tested in vitro for the inhibitory activity against trypsin.
Chain of Serine protease 1 (P07477 whole entry): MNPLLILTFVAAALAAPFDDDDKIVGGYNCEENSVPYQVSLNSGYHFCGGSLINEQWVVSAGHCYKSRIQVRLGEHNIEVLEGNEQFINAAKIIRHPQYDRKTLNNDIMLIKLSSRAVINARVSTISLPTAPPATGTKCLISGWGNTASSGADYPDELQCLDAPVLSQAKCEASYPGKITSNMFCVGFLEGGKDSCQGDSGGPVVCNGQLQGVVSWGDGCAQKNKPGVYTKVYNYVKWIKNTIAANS
For series [8], the target named is Prothrombin (Homo sapiens, UniProt P00734). Nature of the series: Tested in vitro for the inhibitory activity against thrombin.
In series [9] the target is Tissue-type plasminogen activator (Homo sapiens, UniProt P00750). Nature of the series: Tested in vitro for the inhibitory activity against Tissue plasminogen activator (tissue plasminogen activator).
Chain of Tissue-type plasminogen activator (P00750 whole entry): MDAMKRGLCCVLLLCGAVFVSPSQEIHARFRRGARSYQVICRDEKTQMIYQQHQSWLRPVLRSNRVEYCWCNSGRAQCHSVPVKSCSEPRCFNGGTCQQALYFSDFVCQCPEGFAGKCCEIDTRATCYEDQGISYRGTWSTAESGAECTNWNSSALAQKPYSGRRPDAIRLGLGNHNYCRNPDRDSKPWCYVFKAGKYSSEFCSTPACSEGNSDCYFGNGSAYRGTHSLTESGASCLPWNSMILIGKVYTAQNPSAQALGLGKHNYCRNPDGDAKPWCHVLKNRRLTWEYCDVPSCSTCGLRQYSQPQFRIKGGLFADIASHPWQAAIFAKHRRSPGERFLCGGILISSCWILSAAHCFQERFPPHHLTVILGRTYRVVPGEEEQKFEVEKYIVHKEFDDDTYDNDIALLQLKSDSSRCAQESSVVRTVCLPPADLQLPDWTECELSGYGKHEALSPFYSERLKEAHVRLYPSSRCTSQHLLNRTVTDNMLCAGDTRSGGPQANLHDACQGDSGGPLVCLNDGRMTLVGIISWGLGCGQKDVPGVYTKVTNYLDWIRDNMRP
The target of series [10] is T1, Coagulation factor X. Put plainly: Tested in vitro for the inhibitory activity against Coagulation factor X.
A short description of series [11]: Bioavailability in rat was reported at the dose of 6 mg/kg in 25% PEG-300. Particulars: in vivo. The series is classed as ADME, organism-based.

Bounds are passed on as bounds.

In turn, `N=C(N)c1cccc(Oc2ccc(C(=O)O)cc2NC(=O)c2ccc(-c3ccccc3S(N)(=O)=O)cc2)c1` came in with a bioavailability in [1] of 5.5%.
Turning to `N=C(N)c1cccc(Oc2ccc(Cl)cc2C(=O)Nc2ccc(-c3ccccc3S(N)(=O)=O)cc2)c1`, the IC50 in series [2] turned out to be 7.7 nM.
Still for that read-out and setting: the value for `N=C(N)c1cccc(Oc2cc(Br)ccc2NC(=O)c2ccc(-c3ccccc3S(N)(=O)=O)cc2)c1` was 2.1 nM.
On the same count and under the same terms, the value for `CC(=O)Nc1ccc(Oc2cccc(C(=N)N)c2)c(C(=O)Nc2ccc(-c3ccccc3S(N)(=O)=O)cc2)c1` was 7.7 nM; that for `N=C(N)c1cccc(OCCN(Cc2ccoc2)C(=O)c2ccc(-c3ccccc3S(N)(=O)=O)cc2)c1` was 7.8 nM.
In the case of `Nc1nccc2ccc(OCC(c3ccccc3)N3Cc4cc(-c5ccccc5S(N)(=O)=O)ccc4C3=O)cc12` (stereo not given), in series [2], the IC50 was 623 nM.
For `Nc1nccc2ccc(OCC(Cc3ccccc3)N3Cc4cc(-c5ccccc5S(N)(=O)=O)ccc4C3=O)cc12` (stereo not given), the IC50 in series [2] was 226 nM.
On the same count and under the same terms, the value for `N=C(N)c1cccc(OCCN(Cc2ccccc2)C(=O)c2ccc(-c3ccccc3S(N)(=O)=O)cc2)c1` was 14 nM.
For the compound `N=C(N)c1cccc(Oc2ccccc2NC(=O)c2ccc(-c3ccccc3S(N)(=O)=O)cc2)c1`, the inhibition in vivo at 2 mg/kg in series [3] worked out at 41%. In addition, the IC50 in [4] was 43000 nM; in [5], over 181000 nM; in series [6], 250 nM; in [7], 970 nM; in series [2] it was 3.6 nM; in series [8], over 11000 nM. For the same compound, the IC50 in series [9] was 18000 nM.
`N=C(N)c1cccc(Oc2cc([N+](=O)[O-])ccc2C(=O)Nc2ccc(-c3ccccc3S(N)(=O)=O)cc2)c1`: in series [1], the bioavailability is 0.3%. The same compound gave an IC50 in series [2] of 4.8 nM.
Compound `N=C(N)c1cccc(Oc2cc(N)ccc2C(=O)Nc2ccc(-c3ccccc3S(N)(=O)=O)cc2)c1` registered an IC50 in [2] of 19 nM.
As for `N=C(N)c1cccc(OCC(NC(=O)c2ccc(-c3ccccc3S(N)(=O)=O)cc2)c2ccccc2)c1` (stereo not given), half-maximal inhibition in series [2] (IC50) required 3.4 nM.
The same measure, in the same setting: the figure for `N=C(N)c1cccc(Oc2ccc(Br)cc2C(=O)Nc2ccc(-c3ccccc3S(N)(=O)=O)cc2)c1` is 4.4 nM; for `N=C(N)c1cccc(Oc2ccccc2C(=O)Nc2ccc(-c3ccccc3S(N)(=O)=O)cc2)c1` it is 7.3 nM; for `N=C(N)c1cccc(OCC(Cc2ccccc2)NC(=O)c2ccc(-c3ccccc3S(N)(=O)=O)cc2)c1` (stereo not given) it is 5.6 nM.
`N=C(N)c1cccc(OCCNC(=O)c2ccc(-c3ccccc3S(N)(=O)=O)cc2)c1`: the concentration for half-maximal inhibition (IC50) in series [4] is 13000 nM; in [5], 3700 nM; in series [6], 2100 nM; in [7], 1200 nM; in [2] it was 7.5 nM; in series [8] it was 321000 nM. The IC50 in series [9] was found to be 109000 nM.
In series [2], `Nc1nccc2ccc(Oc3ccc(F)cc3NC(=O)c3ccc(-c4ccccc4S(N)(=O)=O)cc3)cc12` displayed an IC50 of 1320 nM.
`N=C(N)c1cccc(OCCN2Cc3cc(-c4ccccc4S(N)(=O)=O)ccc3C2=O)c1`: the IC50 in series [2] is 3.6 nM. Compared with the last compound, the IC50 is about 370-fold lower.
Same read-out and setting: the value for `N=C(N)c1cccc(Oc2cc(Br)ccc2C(=O)Nc2ccc(-c3ccccc3S(N)(=O)=O)cc2)c1` was 1.2 nM; that for `N=C(N)c1cccc(Oc2cc(Cl)ccc2C(=O)Nc2ccc(-c3ccccc3S(N)(=O)=O)cc2)c1` was 1.5 nM; that for `COc1ccc(NC(=O)c2ccc(-c3ccccc3S(N)(=O)=O)cc2)c(Oc2cccc(C(=N)N)c2)c1` was 1.6 nM.
In the case of `Cc1ccc(NC(=O)c2ccc(-c3ccccc3S(N)(=O)=O)cc2)c(Oc2cccc(C(=N)N)c2)c1`, the IC50 in series [2] came to 9.9 nM.
For `CC(COc1ccc2ccnc(N)c2c1)N1Cc2cc(-c3ccccc3S(N)(=O)=O)ccc2C1=O` (stereo not given), half-maximal inhibition in [2] (IC50) was put at 25 nM.
On the same count and under the same terms, the figure for `CN(C)c1ccc(Oc2cccc(C(=N)N)c2)c(C(=O)Nc2ccc(-c3ccccc3S(N)(=O)=O)cc2)c1` is 10 nM.
`N=C(N)c1cccc(Oc2ccc([N+](=O)[O-])cc2C(=O)Nc2ccc(-c3ccccc3S(N)(=O)=O)cc2)c1` displayed an IC50 in [10] of 1.9 nM.
The compound `N=C(N)c1cccc(Oc2ccc(C(F)(F)F)cc2NC(=O)c2ccc(-c3ccccc3S(N)(=O)=O)cc2)c1` had an IC50 in series [2] of 2.5 nM.
For `N=C(N)c1cccc(Oc2ccc(N)cc2C(=O)Nc2ccc(-c3ccccc3S(N)(=O)=O)cc2)c1`, the IC50 in [2] was 12 nM.
Same read-out and setting: the value for `N=C(N)c1cccc(Oc2ccc(Br)cc2NC(=O)c2ccc(-c3ccccc3S(N)(=O)=O)cc2)c1` was 1.6 nM.
The same measure, in the same setting: the value for `CS(=O)(=O)c1ccc(Oc2ccc3ccnc(N)c3c2)c(NC(=O)c2ccc(-c3ccccc3S(N)(=O)=O)cc2)c1` was 6060 nM; that for `CC(=O)Nc1ccc(C(=O)Nc2ccc(-c3ccccc3S(N)(=O)=O)cc2)c(Oc2cccc(C(=N)N)c2)c1` was 61 nM.
The compound `Nc1nccc2ccc(OCCN3Cc4cc(-c5ccccc5S(N)(=O)=O)ccc4C3=O)cc12` showed a bioavailability in series [11] of under 5%. The compound also yielded an IC50 in series [2] of 22 nM.
With `CS(=O)(=O)Nc1ccc(Oc2cccc(C(=N)N)c2)c(C(=O)Nc2ccc(-c3ccccc3S(N)(=O)=O)cc2)c1`, in [2], the IC50 was 5.4 nM.
Same read-out and setting: the value for `N=C(N)c1cccc(OCCN(CC(=O)O)C(=O)c2ccc(-c3ccccc3S(N)(=O)=O)cc2)c1` was 34 nM; that for `CC(COc1cccc(C(=N)N)c1)NC(=O)c1ccc(-c2ccccc2S(N)(=O)=O)cc1` (stereo not given) was 16 nM.
In [2], `Nc1nccc2ccc(Oc3ccc(C(F)(F)F)cc3NC(=O)c3ccc(-c4ccccc4S(N)(=O)=O)cc3)cc12` showed a half-maximal inhibitory concentration (IC50) of 1810 nM.
`N=C(N)c1cccc(OCCN(Cc2cccnc2)C(=O)c2ccc(-c3ccccc3S(N)(=O)=O)cc2)c1` displayed an IC50 in series [2] of 11 nM.
Still for that read-out and setting: the value for `N=C(N)c1cccc(Oc2cc(Cl)ccc2NC(=O)c2ccc(-c3ccccc3S(N)(=O)=O)cc2)c1` was 1.6 nM.
`N=C(N)c1cccc(Oc2ccc(F)cc2NC(=O)c2ccc(-c3ccccc3S(N)(=O)=O)cc2)c1` gave a half-inhibitory concentration (IC50) in series [2] of 4.5 nM.
On to `N=C(N)c1cccc(Oc2cc(O)ccc2NC(=O)c2ccc(-c3ccccc3S(N)(=O)=O)cc2)c1`, for which the IC50 in [2] amounted to 3.9 nM.
In series [2], `Nc1nccc2ccc(Oc3ccccc3NC(=O)c3ccc(-c4ccccc4S(N)(=O)=O)cc3)cc12` registered a concentration for half-maximal inhibition (IC50) of 646 nM.
Same read-out and setting: the figure for `COC(=O)CN(CCOc1cccc(C(=N)N)c1)C(=O)c1ccc(-c2ccccc2S(N)(=O)=O)cc1` is 13 nM; for `CN(C)c1ccc(C(=O)Nc2ccc(-c3ccccc3S(N)(=O)=O)cc2)c(Oc2cccc(C(=N)N)c2)c1` it is 16 nM.
Same read-out and setting: the value for `COC(=O)c1ccc(Oc2cccc(C(=N)N)c2)c(NC(=O)c2ccc(-c3ccccc3S(N)(=O)=O)cc2)c1` was 2.5 nM; that for `CNc1ccc(C(=O)Nc2ccc(-c3ccccc3S(N)(=O)=O)cc2)c(Oc2cccc(C(=N)N)c2)c1` was 12 nM.
The same measure, in the same setting: the value for `CS(=O)(=O)c1ccc(Oc2cccc(C(=N)N)c2)c(NC(=O)c2ccc(-c3ccccc3S(N)(=O)=O)cc2)c1` was 1.8 nM.
